The record followed here is patent US8518912B2, “Phosphonic acid derivates and their use as P2Y12 receptor antagonists” (Actelion Pharmaceuticals Ltd., priority 2008, dated 2013).

A word on the IC50: it is the midpoint of a concentration-inhibition curve.

The target of the assay is T1, human P2Y12 receptor (Homo sapiens, UniProt Q9H244).
T1 construct: expressed in transfected cells; host or cells: Chinese Hamster Ovary (CHO) cells
Description: P2Y12 receptor binding assay. Particulars: CHO cells with recombinant human P2Y12 receptor; tritium-labeled 2-methyl-S-ADP; 2 hours at RT. As for the experimental part:
Chinese Hamster Ovary (CHO) cells with recombinant expression of the human P2Y12 receptor were cultured in 24 well cell-culture plates. Cells were washed three times with binding buffer (50 mM Tris pH 7.4, 100 mM NaCl, […], 0.5% BSA). The cells were then incubated with 0.5 ml per well binding buffer containing tritium-labeled 2-methyl-thio-adenosine 5′-diphosphate (2-methyl-S-ADP) (between 100,000 and 300,000 dpm per well) and various concentrations of test compounds. After incubation at RT for 2 hours, cells were washed three times with binding buffer. Then, cells were solubilized by addition of 0.5 ml solubilization buffer (SDS, NaOH, EDTA). The content of each well was then transferred into beta-counter vials and 2.0 ml of Ultima Gold Scintillation liquid was added.

T1 sequence (Q9H244 whole entry): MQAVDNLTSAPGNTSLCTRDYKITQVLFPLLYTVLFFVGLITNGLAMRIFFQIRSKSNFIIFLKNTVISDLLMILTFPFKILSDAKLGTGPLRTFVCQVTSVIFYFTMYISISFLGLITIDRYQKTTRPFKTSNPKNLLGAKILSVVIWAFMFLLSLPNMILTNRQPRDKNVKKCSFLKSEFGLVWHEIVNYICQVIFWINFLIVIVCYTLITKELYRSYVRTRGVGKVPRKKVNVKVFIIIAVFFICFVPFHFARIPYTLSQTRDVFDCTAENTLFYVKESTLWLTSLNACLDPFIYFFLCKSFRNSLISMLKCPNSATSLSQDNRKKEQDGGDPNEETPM

On to `CCCCOC(=O)N1CCN(C(=O)[C@H](CP2(=O)Nc3ccccc3CO2)NC(=O)c2cc(N3CC[C@H](OC)C3)nc(-c3ccccc3)n2)CC1` (mixture of isomers) [Example 103, 4-[(R)-2-{[6-((S)-3-Methoxy-pyrrolidin-1-yl)-2-phenyl-pyrimidine-4-carbonyl]-amino}-3-(2-oxo-1,4-dihydro-2H-2λ^5-benzo[d][1,3,2]oxazaphosphinin-2-yl)-propionyl]-piperazine-1-carboxylic acid butyl ester], for which the IC50 stood at 3.1 nM. Turning to `CCCCOC(=O)N1CCN(C(=O)[C@H](CP2(=O)OCc3cccc(C)c3O2)NC(=O)c2cc(N3CC[C@H](OC)C3)nc(-c3ccccc3)n2)CC1` (mixture of isomers) [Example 110, 4-[(R)-2-{[6-((S)-3-Methoxy-pyrrolidin-1-yl)-2-phenyl-pyrimidine-4-carbonyl]-amino}-3-(8-methyl-2-oxo-4H-2λ^5-benzo[1,3,2]dioxaphosphinin-2-yl)-propionyl]-piperazine-1-carboxylic acid butyl ester], the IC50 is 2.8 nM. As for `CCCCOC(=O)N1CCN(C(=O)[C@H](CP(=O)(O)OCOC(C)=O)NC(=O)c2cc(N3CC[C@H](OC)C3)nc(-c3ccccc3)n2)CC1` (mixture of isomers) [Example 115, 4-((R)-3-(Acetoxymethoxy-hydroxy-phosphoryl)-2-{[6-((S)-3-methoxy-pyrrolidin-1-yl)-2-phenyl-pyrimidine-4-carbonyl]-amino}-propionyl)-piperazine-1-carboxylic acid butyl ester], the figure is 5 nM; as for `CCCCOC(=O)N1CCN(C(=O)[C@H](CCP(=O)(O)O)NC(=O)c2cc(-n3cccn3)nc(-c3ccccc3)n2)CC1` [Example 7, 4-{(S)-2-[(2-phenyl-6-pyrazol-1-yl-pyrimidine-4-carbonyl)-amino]-4-phosphono-butyryl}-piperazine-1-carboxylic acid butyl ester], 3.2 nM. With `CCCCOC(=O)N1CCN(C(=O)[C@H](CCP(=O)(O)O)NC(=O)c2cc(N3CCOCC3)nc(-c3ccccc3)n2)CC1` [Example 12, 4-{(S)-2-[(6-morpholin-4-yl-2-phenyl-pyrimidine-4-carbonyl)-amino]-4-phosphono-butyryl}-piperazine-1-carboxylic acid butyl ester], the IC50 came out at 5.9 nM. With `CCCCOC(=O)N1CCN(C(=O)[C@H](CP(=O)(O)O)NC(=O)c2cc(NCC)nc(-c3ccccc3)n2)CC1` [Example 16, 4-{(R)-2-[(6-ethylamino-2-phenyl-pyrimidine-4-carbonyl)-amino]-3-phosphono-propionyl}-piperazine-1-carboxylic acid butyl ester], the IC50 was 4.5 nM. As for `CCCCOC(=O)N1CCN(C(=O)[C@H](CCP(=O)(O)O)NC(=O)c2cc(N3CC[C@H](OC)C3)nc(-c3cccc(F)c3)n2)CC1` [Example 21, 4-((S)-2-{[2-(3-fluoro-phenyl)-6-((S)-3-methoxy-pyrrolidin-1-yl)-pyrimidine-4-carbonyl]-amino}-4-phosphono-butyryl)-piperazine-1-carboxylic acid butyl ester], the figure is 78 nM. The value for `CCCCOC(=O)N1CCN(C(=O)[C@H](CP(=O)(O)O)NC(=O)c2cc(-c3ccc(OC)cc3)nc(-c3ccccc3)n2)CC1` [Example 34, 4-((R)-2-{[6-(4-methoxy-phenyl)-2-phenyl-pyrimidine-4-carbonyl]-amino}-3-phosphono-propionyl)-piperazine-1-carboxylic acid butyl ester] was 13 nM; that for `CCCCOC(=O)N1CCN(C(=O)[C@H](CP(=O)(O)O)NC(=O)c2cc(C3CC3)nc(-c3ccccc3)n2)CC1` [Example 35, 4-{(R)-2-[(6-cyclopropyl-2-phenyl-pyrimidine-4-carbonyl)-amino]-3-phosphono-propionyl}-piperazine-1-carboxylic acid butyl ester] was 14 nM; that for `CCCCOC(=O)N1CCN(C(=O)[C@H](CP(=O)(O)O)NC(=O)c2cc(O[C@H]3CCOC3)nc(-c3ccccc3)n2)CC1` [Example 37, 4-[(R)-2-({2-phenyl-6-[(S)-(tetrahydro-furan-3-yl)oxy]-pyrimidine-4-carbonyl}-amino)-3-phosphono-propionyl]-piperazine-1-carboxylic acid butyl ester] was 78 nM.

With `CCOC(=O)N1CCN(C(=O)[C@H](CP(=O)(O)O)NC(=O)c2cc(N3CC[C@H](OC)C3)nc(-c3ccccc3)n2)CC1C` (stereo partly drawn) [Example 38, 4-((R)-2-{[6-((S)-3-methoxy-pyrrolidin-1-yl)-2-phenyl-pyrimidine-4-carbonyl]-amino}-3-phosphono-propionyl)-2-methyl-piperazine-1-carboxylic acid ethyl ester], the IC50 worked out at 61 nM.

With `CCCCOC(=O)N1CCN(C(=O)[C@H](CP(=O)(O)O)NC(=O)c2cc(CCCOC)nc(-c3ccccc3)n2)CC1` [Example 45, 4-((R)-2-{[6-(3-methoxy-propyl)-2-phenyl-pyrimidine-4-carbonyl]-amino}-3-phosphono-propionyl)-piperazine-1-carboxylic acid butyl ester], the IC50 was determined as 5.5 nM.

Consider `CCCCOC(=O)N1CCN(C(=O)[C@H](CCP(=O)(OCOC(=O)C(C)(C)C)OCOC(=O)C(C)(C)C)NC(=O)c2cc(N3CC[C@H](OC)C3)nc(-c3ccccc3)n2)CC1` [Example 48, 4-((S)-4-[bis-(2,2-dimethyl-propionyloxymethoxy)-phosphoryl]-2-{[6-((S)-3-methoxy-pyrrolidin-1-yl)-2-phenyl-pyrimidine-4-carbonyl]-amino}-butyryl)-piperazine-1-carboxylic acid butyl ester], for which the IC50 is 49 nM. As to `CCCCOC(=O)N1CCN(C(=O)C(NC(=O)c2cc(N3CC[C@H](OC)C3)nc(-c3ccccc3)n2)P(=O)(O)O)CC1` (stereo partly drawn) [Example 56, 4-(2-{[6-((S)-3-methoxy-pyrrolidin-1-yl)-2-phenyl-pyrimidine-4-carbonyl]-amino}-2-phosphono-acetyl)-piperazine-1-carboxylic acid butyl ester], the IC50 is 162 nM.

Consider `CCOC(=O)N1CCN(C(=O)[C@H](Cc2ccc(CP(=O)(O)O)cc2)NC(=O)c2cc(N3CC[C@H](OC)C3)nc(-c3ccccc3)n2)CC1` [Example 61, 4-[(S)-2-{[6-((S)-3-Methoxy-pyrrolidin-1-yl)-2-phenyl-pyrimidine-4-carbonyl]-amino}-3-(4-phosphonomethyl-phenyl)-propionyl]-piperazine-1-carboxylic acid ethyl ester], for which the IC50 was determined as 7.5 nM.

For `CCCCOC(=O)N1CCN(C(=O)[C@@H](CCCP(=O)(O)O)NC(=O)c2cc(N3CC[C@H](OC)C3)nc(-c3ccccc3)n2)CC1` [Example 63, 4-((R)-2-{[6-((S)-3-Methoxy-pyrrolidin-1-yl)-2-phenyl-pyrimidine-4-carbonyl]-amino}-5-phosphono-pentanoyl)-piperazine-1-carboxylic acid butyl ester], the IC50 was determined as 69 nM.

For `CCOC(=O)N1CCN(C(=O)[C@H](Cc2cccc(P(=O)(O)O)c2)NC(=O)c2cc(N3CC[C@H](OC)C3)nc(-c3ccccc3)n2)CC1` [Example 67, 4-[(S)-2-{[6-((S)-3-Methoxy-pyrrolidin-1-yl)-2-phenyl-pyrimidine-4-carbonyl]-amino}-3-(3-phosphono-phenyl)-propionyl]-piperazine-1-carboxylic acid ethyl ester], the IC50 came to 13 nM.
